Laboratory results taken from ChEMBL document CHEMBL3046744, “Comparison of the declining triazole sensitivity of Gibberella zeae and increased sensitivity achieved by advances in triazole fungicide development” (Crop Prot, 2007).
The source made the active and inactive calls. The rule behind the calls is not given here.

Columns and labels:
Fusarium culmorum = assay: Antifungal activity against Fusarium culmorum infected durum wheat assessed as reduction in deoxynivalenol content in crop; assay type: functional; set-up: scale not given: the % may be the effect or the level left
Rattus norvegicus = assay: Toxicity in po dosed Rattus norvegicus (rat) relative to metconazole; assay type: organism-based; conditions: in vivo
Fusarium graminearum [1] = assay: Antifungal activity against Fusarium graminearum after 8 hr by microscopic analysis relative to prothioconazole; assay type: functional
Fusarium graminearum [2] = assay: Growth inhibition of Fusarium graminearum isolate 74B at 10^-4 M after 14 days; assay type: functional; conditions: 336 h, read-out: GI
Fusarium graminearum [3] = assay: Growth inhibition of Fusarium graminearum isolate 137 at 10^-4 M after 14 days; assay type: functional; conditions: isolate 137, 336 h, read-out: GI
Fusarium graminearum [4] = assay: Growth inhibition of Fusarium graminearum isolate 4527b at 10^-4 M after 14 days; assay type: functional; conditions: 336 h, read-out: GI
Fusarium graminearum [5] = assay: Growth inhibition of Fusarium graminearum isolate 123 at 10^-4 M after 14 days; assay type: functional; conditions: isolate 123, 336 h, read-out: GI
Fusarium graminearum [6] = assay: Growth inhibition of Fusarium graminearum isolate 102 at 10^-4 M after 14 days; assay type: functional; conditions: isolate 102, 336 h, read-out: GI
Fusarium graminearum [7] = assay: Growth inhibition of Fusarium graminearum isolate 106 at 10^-4 M after 14 days; assay type: functional; conditions: isolate 106, 336 h, read-out: GI
Fusarium graminearum [8] = assay: Growth inhibition of Fusarium graminearum isolate 37 at 10^-4 M after 14 days; assay type: functional; conditions: isolate 37, 336 h, read-out: GI
Fusarium graminearum [9] = assay: Antifungal activity against Fusarium graminearum isolate 137 after 8 hr by microscopic analysis; assay type: functional, organism-based; conditions: isolate 137, 8 h, pooled result: one value given for 5 cell lines, strains, targets or settings
[10] = Toxicity in po dosed Rattus norvegicus (rat); assay type: organism-based; conditions: in vivo
[11] = Aqueous solubility of the compound assessed per 100 g; assay type: physicochemical; conditions: buffer
[12] = Selectivity ratio of relative toxicity against po dosed rat to relative efficacy against Gibberella zeae; assay type: organism-based; conditions: in vivo
[13] = Aqueous solubility of the compound assessed per 100 g at pH 7; assay type: physicochemical; conditions: buffer
Fusarium graminearum [14] = assay: Growth inhibition of Fusarium graminearum at >/= 0.001 M after 14 days; assay type: functional, organism-based

Row | SMILES | Activity (Fusarium culmorum) [%] | fold change (FC) (Rattus norvegicus) | fold change (FC) (Fusarium graminearum [1]) | EC50 (Fusarium graminearum [9]) [µM] | LD50 [10] [mg/kg] | solubility [11] [mg] | selectivity ratio [12] | also measured
1 | Clc1ccc(C2(Cn3cncn3)CC(Br)CO2)c(Cl)c1 (stereo unspecified) [BROMUCONAZOLE] | 43 | – | – | – | – | – | – | –
2 | Fc1ccc([C@]2(Cn3cncn3)O[C@H]2c2ccccc2Cl)cc1 [EPOXICONAZOLE] | – | 0.19 | 0 | 10800 | 3160 | 0.7 | – | inhibition of growth at 100 µM (Fusarium graminearum [2]): 95.7%; inhibition of growth at 100 µM (Fusarium graminearum [3]): 99.6%; inhibition of growth at 100 µM (Fusarium graminearum [4]): 98%; inhibition of growth at 100 µM (Fusarium graminearum [5]): 95.9%; inhibition of growth at 100 µM (Fusarium graminearum [6]): 97.1%; inhibition of growth at 100 µM (Fusarium graminearum [7]): 95.4%; inhibition of growth at 100 µM (Fusarium graminearum [8]): 98.7%
3 | CC1(C)CCC(Cc2ccc(Cl)cc2)C1(O)Cn1cncn1 (stereo unspecified) [METCONAZOLE] | – | – | 0.27 | 177 | 660 | – | 0.27 | solubility [13]: 3 mg
4 | CCCN(CCOc1c(Cl)cc(Cl)cc1Cl)C(=O)n1ccnc1 [PROCHLORAZ] | 43 | – | – | – | – | – | – | –
5 | OC(Cc1ccccc1Cl)(Cn1nc[nH]c1=S)C1(Cl)CC1 (stereo unspecified) [PROTHIOCONAZOLE] | – | 0.1 | – | 32 | 6200 | – | 10.3 | –
6 | CC(C)(C)C(O)(CCc1ccc(Cl)cc1)Cn1cncn1 (stereo unspecified) [TEBUCONAZOLE] | 43 | 0.35 | 0.15 | 327 | 1700 | 3.6 | 0.44 | growth inhibition (GI) (Fusarium graminearum [14]): Active
